Assay results reported in patent US10919841B2, “Monoamine reuptake inhibitors” (Research Triangle Institute, priority 2009, dated 2021).
Like-named read-outs stand apart in the source and are kept apart here.

Legend:
(h)DAT [1] = target: T1, (h)DAT (Homo sapiens, UniProt Q01959); experiment: competition binding with [125I]RTI-55 at (h)DAT stably expressed in HEK293 cells; details: for Ki: mean ± standard error of three independent experiments
T1 construct: expressed in transfected cells

(h)SERT [2] = target: T2, (h)SERT (Homo sapiens, UniProt P31645); details: read-out: Binding, Ki SERT
T2 construct: expressed in transfected cells; host or cells: HEK293

(h)DAT [3] = target: T1, (h)DAT; experiment: block of [3H]dopamine reuptake in HEK-(h)DAT cells; assay type: cell-based
(h)SERT [4] = target: T2, (h)SERT; experiment: block of [3H]serotonin reuptake in HEK-(h)SERT cells; assay type: cell-based
(h)NET [5] = target: T3, (h)NET (Homo sapiens, UniProt P23975); experiment: block of [3H]norepinephrine reuptake in HEK-(h)NET cells
(h)NET [6] = target: T3, (h)NET; experiment: competition binding with [125I]RTI-55 at (h)NET stably expressed in HEK293 cells; details: for Ki: read-out: Binding, Ki NET, mean ± standard error of three independent experiments
mice [7] = experiment: locomotor activity, 1-h observation protocol; assay type: in vivo
mice [8] = experiment: locomotor activity, 8-h time course protocol; assay type: in vivo; details: for locomotor stimulant activity across the 1-h and 8-h protocols, in words: 1-h and 8-h tests compared; for Emax / ED50: Mus musculus; for Emax: read-out: Locomotor Activity 8-Hour % Peak Cocaine, percent of cocaine's maximal effect, 30 min period of maximum stimulation; for ED50: read-out: Locomotor Activity 8-Hour ED50; for Locomotor Activity 8-Hour Time, min Period, length: duration of locomotor activity; for Locomotor Activity 8-Hour Time, min Period, max: time period of maximum effect
rats [9] = experiment: cocaine discrimination (2-lever operant), i.p. administration; details: Rattus norvegicus, ip
rats [10] = experiment: cocaine discrimination time-course study, oral administration; details: Rattus norvegicus, po, 0.75 h
[11] = [3H]DA, read-out: IC50 for DA uptake inhibition
[12] = [3H]5HT, read-out: IC50 for 5HT uptake inhibition
[13] = read-out: IC50 for NE uptake inhibition, [3H]NE
[14] = read-out: Uptake, IC50 [3H]NE, mean ± standard error of three independent experiments
[15] = dose to produce 50% of the compound's maximal effect, 1-h
[16] = dose to produce 50% of the compound's maximal effect, 8-h
[17] = read-out: % cocaine lever responding

T2 sequence (P31645 whole entry): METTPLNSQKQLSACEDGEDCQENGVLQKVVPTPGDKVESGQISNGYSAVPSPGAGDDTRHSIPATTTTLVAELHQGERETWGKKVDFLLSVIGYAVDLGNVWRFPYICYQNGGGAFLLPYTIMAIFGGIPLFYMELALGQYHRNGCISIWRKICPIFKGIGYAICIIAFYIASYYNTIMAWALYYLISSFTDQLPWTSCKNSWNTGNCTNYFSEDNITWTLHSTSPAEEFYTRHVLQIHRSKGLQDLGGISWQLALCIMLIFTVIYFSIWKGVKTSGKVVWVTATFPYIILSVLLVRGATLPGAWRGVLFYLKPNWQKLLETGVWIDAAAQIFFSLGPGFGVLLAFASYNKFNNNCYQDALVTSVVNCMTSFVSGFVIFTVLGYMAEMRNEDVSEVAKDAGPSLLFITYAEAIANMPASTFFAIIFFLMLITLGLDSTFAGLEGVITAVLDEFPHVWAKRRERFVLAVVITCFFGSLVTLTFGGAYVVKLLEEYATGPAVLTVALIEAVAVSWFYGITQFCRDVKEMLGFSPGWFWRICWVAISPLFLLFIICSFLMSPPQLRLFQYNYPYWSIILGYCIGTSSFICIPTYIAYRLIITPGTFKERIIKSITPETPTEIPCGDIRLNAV
T1 sequence (Q01959 whole entry): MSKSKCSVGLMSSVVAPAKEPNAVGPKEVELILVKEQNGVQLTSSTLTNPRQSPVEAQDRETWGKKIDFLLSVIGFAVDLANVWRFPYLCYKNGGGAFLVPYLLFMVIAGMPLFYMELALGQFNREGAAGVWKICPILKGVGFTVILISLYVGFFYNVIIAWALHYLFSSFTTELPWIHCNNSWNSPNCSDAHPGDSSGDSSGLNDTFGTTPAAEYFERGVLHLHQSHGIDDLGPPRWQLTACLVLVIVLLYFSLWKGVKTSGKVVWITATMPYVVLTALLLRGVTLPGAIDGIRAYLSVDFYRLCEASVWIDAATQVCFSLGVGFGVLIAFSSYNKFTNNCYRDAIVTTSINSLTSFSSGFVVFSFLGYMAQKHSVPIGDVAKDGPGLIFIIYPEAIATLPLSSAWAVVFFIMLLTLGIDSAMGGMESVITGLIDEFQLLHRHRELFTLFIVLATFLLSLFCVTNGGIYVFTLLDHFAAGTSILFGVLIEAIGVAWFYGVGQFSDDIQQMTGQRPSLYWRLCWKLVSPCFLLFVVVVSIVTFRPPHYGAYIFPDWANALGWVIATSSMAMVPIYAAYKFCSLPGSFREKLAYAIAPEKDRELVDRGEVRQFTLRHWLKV
T3 sequence (P23975 whole entry): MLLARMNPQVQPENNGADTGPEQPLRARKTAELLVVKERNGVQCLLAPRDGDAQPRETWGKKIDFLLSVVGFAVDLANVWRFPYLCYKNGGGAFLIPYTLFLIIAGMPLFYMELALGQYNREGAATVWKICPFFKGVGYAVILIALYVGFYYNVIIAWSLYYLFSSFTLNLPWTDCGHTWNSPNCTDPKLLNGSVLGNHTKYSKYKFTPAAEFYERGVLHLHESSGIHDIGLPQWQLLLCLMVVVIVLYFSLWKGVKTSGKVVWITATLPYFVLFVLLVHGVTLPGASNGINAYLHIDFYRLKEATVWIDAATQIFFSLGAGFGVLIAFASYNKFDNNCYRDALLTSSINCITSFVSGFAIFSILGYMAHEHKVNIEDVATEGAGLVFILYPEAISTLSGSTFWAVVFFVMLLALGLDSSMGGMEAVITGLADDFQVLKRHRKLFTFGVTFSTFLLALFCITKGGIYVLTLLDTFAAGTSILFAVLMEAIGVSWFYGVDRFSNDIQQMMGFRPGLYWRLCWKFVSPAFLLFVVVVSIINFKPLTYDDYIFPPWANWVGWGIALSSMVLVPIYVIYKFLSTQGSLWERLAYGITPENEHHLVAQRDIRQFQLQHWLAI

CC(NC1CCC1)C(=O)c1cccc(Cl)c1 (stereo not drawn) [Compound 2y, 2-(N-Cyclobutylamino)-3′-chloropropiophenone] gave a Ki ((h)DAT [1]) of 343 nM, a Ki ((h)SERT [2]; mean ± standard error of three independent experiments) of 3450 nM and an IC50 ((h)DAT [3]; [11]) of 258 nM. For the same molecule, the “times more potent than bupropion as DA uptake inhibitor” value ((h)DAT [3]; relative to bupropion) was 3.7 times, the IC50 ((h)SERT [4]; [12]) was 185 nM and the IC50 ((h)NET [5]; [13]) was 86 nM. For the same molecule, the IC50 ((h)NET [5]; [14]) was 86 nM, the “times better as NE uptake inhibitors than bupropion” value ((h)NET [5]; relative to bupropion) was 17 times and the Ki ((h)NET [6]) was 1800 nM.

Work on CC(NC(C)(C)C)C(=O)c1ccc(Br)cc1 (stereo not drawn) [Compound 2g, 2-(N-tert-Butylamino)-4′-bromopropiophenone] yielded a Ki ((h)DAT [1]) of 1920 nM, a Ki ((h)SERT [2]) of 4170 nM and an IC50 ((h)DAT [3]; mean ± standard error of three independent experiments, read-out: Uptake, IC50 [3H]DA) of 1300 nM. The IC50 ((h)SERT [4]; read-out: Uptake, IC50 [3H]5-HT) was 2520 nM, the “Locomotor Activity 1-Hour ED50” value (mice [7]; [15]) was “NE^f” and the “locomotor stimulant activity across the 1-h and 8-h protocols, in words” value (mice [8]) was “inactive in the 1-h test but showed weak stimulant activity in the 8-h protocol”. For the same molecule, the Emax (mice [8]) was 54%, the ED50 (mice [8]; [16]) was 32 mg/kg and the “Locomotor Activity 8-Hour Time, min Period, length” value (mice [8]) was 160 min. For the same molecule, the “Locomotor Activity 8-Hour Time, min Period, max” value (mice [8]) was 140 to 170 min, the responders at 10 mg/kg (rats [9]; [17]) was 1% and the responders at 25 mg/kg (rats [9]; [17]) was 17%. It also gave a responders at 50 mg/kg (rats [9]; [17]) of 17% and a responders at 100 mg/kg (rats [9]; [17]) of 0%.

Cc1cc(C(=O)C(C)NC(C)(C)C)ccc1Br (stereo not drawn) [Compound 2l, 2-(N-tert-Butylamino)-4′-bromo-5′-methylpropiophenone] was tested, and the Ki ((h)SERT [2]) was 1220 nM, the IC50 ((h)SERT [4]; read-out: IC50 for 5HT uptake inhibition) was 473 nM and the “Locomotor Activity 1-Hour ED50” value (mice [7]; [15]) was “NE^f”. For the same molecule, the Emax (mice [8]) was 46%, the ED50 (mice [8]; [16]) was 12.8 mg/kg and the “Locomotor Activity 8-Hour Time, min Period, length” value (mice [8]) was 240 min. The “Locomotor Activity 8-Hour Time, min Period, max” value (mice [8]) was 50 to 80 min, the IC50 ((h)NET [5]; [14]) was 1620 nM and the responders at 10 mg/kg (rats [9]; [17]) was 0%. For the same molecule, the responders at 25 mg/kg (rats [9]; [17]) was 0%, the responders at 50 mg/kg (rats [9]; [17]) was 17% and the responders at 100 mg/kg (rats [9]; [17]) was 67%. For the same molecule, the Ki ((h)NET [6]) was 4600 nM.

For CC(NC1CCCC1)C(=O)c1cccc(Cl)c1 (stereo not drawn) [Compound 2z, 2-(N-Cyclopentylamino)-3′-chloropropiophenone], the Ki ((h)DAT [1]) was 2200 nM, the IC50 ((h)DAT [3]; [11]) was 980 nM and the “5HT uptake inhibition, in words” value ((h)SERT [4]) was “totally inactive”. For the same molecule, the Emax (mice [7]; Mus musculus, 0.5 h, read-out: Locomotor Activity 1-Hour % Peak Cocaine) was 110%, the ED50 (mice [7]; Mus musculus, dose to produce 50% of the compound's maximal effect, 1-h) was 10.6 mg/kg and the “locomotor stimulant activity across the 1-h and 8-h protocols, in words” value (mice [8]) was “strong stimulants in both studies”. The ED50 (mice [8]; 8 h) was 10.6 mg/kg, the Emax (mice [8]) was 110% and the “Locomotor Activity 8-Hour Time, min Period, length” value (mice [8]) was 330 to 340 min. For the same molecule, the “onset and duration of locomotor activity, in words” value (mice [8]; mouse, in vivo) was “long durations of action”, the “Locomotor Activity 8-Hour Time, min Period, max” value (mice [8]) was 0 to 30 min and the IC50 ((h)NET [5]; [13]) was 221 nM. It also gave a responders at 5 mg/kg (rats [9]; [17]) of 2%, a responders at 10 mg/kg (rats [9]; [17]) of 0% and a responders at 25 mg/kg (rats [9]; [17]) of 66%. The responders at 50 mg/kg (rats [9]; [17]) was 83%, the ED50 (rats [9]; read-out: Full Generalization ED50) was 10.8 mg/kg and the ED50 (rats [10]) was 8.28 mg/kg. The Ki ((h)NET [6]) was 5700 nM.

For C[C@@H](NC(C)(C)C)[C@H](O)c1ccccc1 (racemic) [Compound 7, (1RS,2RS)-2-(N-tert-Butylamino)-1-phenyl-1-propanol, reference compound], the “affinity at the DAT, in words” value ((h)DAT [1]) was “loss of affinity”, the IC50 ((h)SERT [4]; [12]) was 1240 nM and the “affinity at the NET, in words” value ((h)NET [6]) was “loss of affinity”.

For CCCNC(C)C(=O)c1cccc(Cl)c1 (stereo not drawn) [Compound 2v, 2-(N-Propylamino)-3′-chloropropiophenone], the “DA uptake inhibition, in words” value ((h)DAT [3]) was “inactive”, the “5HT uptake inhibition, in words” value ((h)SERT [4]) was “inactive” and the “Locomotor Activity 1-Hour ED50” value (mice [7]; [15]) was “NE^f”. The “Locomotor Activity 8-Hour ED50” value (mice [8]; [16]) was “NE^f” and the “NE uptake inhibition, in words” value ((h)NET [5]) was “inactive”.
